# US8217063B2, “Lactam-substituted dicarboxylic acids and use thereof” (Bayer Intellectual Property GmbH, priority 2007, dated 2012)
# How the values were obtained:
# [1] = target: T1, recombinant guanylate cyclase reporter cell line (Rattus norvegicus, UniProt P20595); experiment: sGC-activating activity in the CHO reporter cell in vitro; format: cell-based
# T1 construct: expressed in transfected cells; host or cells: CHO
# T1 sequence (P20595 1-619): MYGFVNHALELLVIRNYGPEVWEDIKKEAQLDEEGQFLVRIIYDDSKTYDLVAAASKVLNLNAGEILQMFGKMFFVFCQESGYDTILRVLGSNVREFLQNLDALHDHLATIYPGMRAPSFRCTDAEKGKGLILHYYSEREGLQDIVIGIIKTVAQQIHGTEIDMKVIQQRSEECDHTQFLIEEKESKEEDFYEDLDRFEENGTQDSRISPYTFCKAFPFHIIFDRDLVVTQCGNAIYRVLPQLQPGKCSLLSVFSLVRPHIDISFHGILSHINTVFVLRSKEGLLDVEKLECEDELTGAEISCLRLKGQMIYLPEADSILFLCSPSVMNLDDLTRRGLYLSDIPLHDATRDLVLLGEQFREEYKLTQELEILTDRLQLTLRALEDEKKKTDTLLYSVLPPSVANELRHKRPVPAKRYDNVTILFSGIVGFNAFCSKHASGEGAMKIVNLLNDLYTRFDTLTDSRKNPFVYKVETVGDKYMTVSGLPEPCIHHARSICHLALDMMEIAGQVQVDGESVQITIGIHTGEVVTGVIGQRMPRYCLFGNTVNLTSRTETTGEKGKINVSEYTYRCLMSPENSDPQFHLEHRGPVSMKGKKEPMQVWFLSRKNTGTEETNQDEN
# T1 sequence (P19686 1-690 partner): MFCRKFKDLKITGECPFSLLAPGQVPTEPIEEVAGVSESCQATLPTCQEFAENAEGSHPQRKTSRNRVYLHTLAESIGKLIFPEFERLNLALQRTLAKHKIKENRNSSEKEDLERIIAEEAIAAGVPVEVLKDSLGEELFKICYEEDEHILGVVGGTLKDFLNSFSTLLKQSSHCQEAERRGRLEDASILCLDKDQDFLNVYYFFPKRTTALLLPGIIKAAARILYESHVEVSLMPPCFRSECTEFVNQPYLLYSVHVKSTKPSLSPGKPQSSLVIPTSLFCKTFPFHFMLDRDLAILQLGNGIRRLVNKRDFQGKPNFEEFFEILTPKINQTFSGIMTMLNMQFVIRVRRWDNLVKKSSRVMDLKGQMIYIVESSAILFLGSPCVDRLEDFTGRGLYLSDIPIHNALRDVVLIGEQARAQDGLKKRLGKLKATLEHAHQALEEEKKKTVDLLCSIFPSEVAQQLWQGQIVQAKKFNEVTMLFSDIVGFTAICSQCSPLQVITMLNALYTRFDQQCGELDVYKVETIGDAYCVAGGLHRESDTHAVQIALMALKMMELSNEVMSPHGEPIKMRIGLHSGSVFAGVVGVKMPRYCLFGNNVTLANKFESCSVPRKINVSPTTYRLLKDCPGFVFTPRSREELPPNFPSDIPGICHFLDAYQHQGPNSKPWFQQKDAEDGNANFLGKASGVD
# Protocol: B-3. Action at Recombinant Guanylate Cyclase Reporter Cell Lines
# The cellular action of the compounds according to the invention is determined using a recombinant guanylate cyclase reporter cell line, as described in F. Wunder et al., Anal. Biochem. 339, 104-112 (2005).
# [2] = test system: saphenous artery; experiment: Vasorelaxant effect in vitro (phenylephrine-contracted artery rings); set-up: species or system Rabbits; conditions: Oryctolagus cuniculus; rabbit saphenous artery rings, contraction induced by phenylephrine
# Protocol: B-1. Vasorelaxant Effect In Vitro:
# Rabbits are anesthetized and sacrificed by intravenous injection of thiopental sodium (about 50 mg/kg) and exsanguinated. The saphenous artery is removed and divided into rings 3 mm wide. The rings are mounted singly on in each case a pair of triangular hooks open at the end and made of 0.3 mm-thick special wire (Remanium®). Each ring is placed under an initial tension in 5 ml organ baths with Krebs-Henseleit solution which is at 37° C., is gassed with carbogen and has the following composition: NaCl 119 mM; KCl 4.8 mM; CaCl2×2H2O 1 mM; MgSO4×7H2O 1.4 mM; KH2PO4 1.2 mM; NaHCO3 25 mM; glucose 10 mM; bovine serum albumin 0.001%. The force of contraction is detected with Statham UC2 cells, amplified and digitized via A/D converters (DAS-1802 HC, Keithley Instruments, Munich) and recorded in parallel on chart recorders. Contractions are induced by addition of phenylephrine.
# After several (generally 4) control cycles, the substance to be investigated is added in each further run in increasing dosage, and the height of the contraction achieved under the influence of the test substance is compared with the height of the contraction reached in the last preceding run. The concentration necessary to reduce the contraction reached in the preceding control by 50% is calculated from this (IC50). The standard application volume is 5 μl. The proportion of DMSO in the bath solution corresponds to 0.1%.
# [3] = target: T2, Heme-containing sGC (Rattus norvegicus, UniProt P20595); experiment: Stimulation of recombinant soluble guanylate cyclase (sGC) in vitro, heme-containing enzyme; format: biochemical; conditions: 0.0 μM Example 3
# T2 construct: made in house; host or cells: baculovirus/Sf9
# T2 sequence (P20595 1-619): T1 sequence (P20595 1-619)
# T2 sequence (P19686 1-690 partner): T1 sequence (P19686 1-690 partner)
# Source text: B-2. Stimulation of Recombinant Soluble Guanylate Cyclase (sGC) In Vitro:
# Hoenicka, E. M. Becker, H. Apeler, T. Sirichoke, H. Schroeder, R. Gerzer and J.-P. Stasch, “Purified soluble guanylyl cyclase expressed in a baculovirus/Sf9 system: Stimulation by YC-1, nitric oxide, and carbon oxide”, J. Mol. Med. 77 (1999), 14-23. The heme-free guanylate cyclase is obtained by adding Tween 20 to the sample buffer (0.5% in the final concentration).
# The activation of sGC by a test substance is reported as n-fold stimulation of the basal activity.
SMILES,MEC (minimum effective concentration) [1] [nM],IC50 [2] [nM],other results
"O=C(O)c1ccc(CCC(/C=C/c2ccccc2OCCCCCN2CCCCC2=O)Cc2ccc(C(=O)O)cc2)cc1 (racemic) [Example 7, 4-[(4E)-3-(4-Carboxybenzyl)-5-(2-{[5-(2-oxopiperidin-1-yl)pentyl]oxy}phenyl)pent-4-en-1-yl]-benzoic acid]",1,–,–
"O=C(O)c1ccc(CCC(/C=C/c2ccccc2OCCCCCN2CCOC2=O)Cc2ccc(C(=O)O)cc2)cc1 (racemic) [Example 8, 4-[(4E)-3-(4-Carboxybenzyl)-5-(2-{[5-(2-oxo-1,3-oxazolidin-3-yl)pentyl]oxy}phenyl)pent-4-en-1-yl]benzoic acid]",1,–,–
"CN1CCCN(CCCCCOc2ccccc2/C=C/C(CCc2ccc(C(=O)O)cc2)Cc2ccc(C(=O)O)cc2)C1=O (racemic) [Example 10, 4-[(4E)-3-(4-Carboxybenzyl)-5-(2-{[5-(3-methyl-2-oxotetrahydropyrimidin-1(2H)-yl)pentyl]oxy}-phenyl)pent-4-en-1-yl]benzoic acid]",3,–,–
"O=C(O)c1ccc(CCC(/C=C/c2ccccc2OCCCCN2CCCC2=O)Cc2ccc(C(=O)O)cc2)cc1 (racemic) [Example 11, 4-[(4E)-3-(4-Carboxybenzyl)-5-{2-[4-(2-oxopyrrolidin-1-yl)butoxy]phenyl}pent-4-en-1-yl]benzoic acid]",<1,–,–
"O=C(O)c1ccc(CCC(/C=C/c2ccccc2OCCN2CCOC2=O)Cc2ccc(C(=O)O)cc2)cc1 (racemic) [Example 12, 4-[(4E)-3-(4-Carboxybenzyl)-5-{2-[2-(2-oxo-1,3-oxazolidin-3-yl)ethoxy]phenyl}pent-4-en-1-yl]-benzoic acid]",100,–,–
"O=C(O)c1ccc(CCC(/C=C/c2ccccc2OCCCN2CCOCC2=O)Cc2ccc(C(=O)O)cc2)cc1 (single isomer, unassigned) [Example 4, 4-[(4E)-3-(4-Carboxybenzyl)-5-{2-[3-(3-oxomorpholin-4-yl)propoxy]phenyl}pent-4-en-1-yl]-benzoic acid]",2,330,–
"O=C(O)c1ccc(CCC(/C=C/c2ccccc2OCCCN2CCOC2=O)Cc2ccc(C(=O)O)cc2)cc1 (single isomer, unassigned) [Example 5, 4-[(4E)-3-(4-Carboxybenzyl)-5-{2-[3-(2-oxo-1,3-oxazolidin-3-yl)propoxy]phenyl}pent-4-en-1-yl]-benzoic acid]",–,58,–
"O=C(O)c1ccc(CCC(/C=C/c2cc(F)ccc2OCCCN2CCCC2=O)Cc2ccc(C(=O)O)cc2)cc1 (single isomer, unassigned) [Example 6, 4-[(4E)-3-(4-Carboxybenzyl)-5-{5-fluoro-2-[3-(2-oxopyrrolidin-1-yl)propoxy]phenyl}pent-4-en-1-yl]benzoic acid]",3,135,–
"CCN(CC)[N+]([O-])=NO [DEA/NO, 2-(N,N-diethylamino)diazenolate 2-oxide, reference compound]",–,–,Stimulation (n-fold) of sGC by DEA/NO alone ([3]; 0.1 μM DEA/NO): 18.5 n-fold
"O=C(O)c1ccc(CCC(/C=C/c2cc(F)ccc2OCCCN2CCCC2=O)CCc2ccc(C(=O)O)cc2)cc1 [Example 1, 4-[(4E)-3-[2-(4-Carboxyphenyl)ethyl]-5-{5-fluoro-2-[3-(2-oxopyrrolidin-1-yl)propoxy]phenyl}-pent-4-en-1-yl]benzoic acid]",3,390,–
"O=C(O)c1ccc(CCC(/C=C/c2ccccc2OCCCN2CCCC2=O)CCc2ccc(C(=O)O)cc2)cc1 [Example 2, 4-[(4E)-3-[2-(4-Carboxyphenyl)ethyl]-5-{2-[3-(2-oxopyrrolidin-1-yl)propoxy]phenyl}pent-4-en-1-yl]benzoic acid]",3,255,–
"CC1OCCN(CCCCCOc2ccccc2/C=C/C(CCc2ccc(C(=O)O)cc2)Cc2ccc(C(=O)O)cc2)C1=O (centres unmarked) [Example 9, 4-[(4E)-3-(4-Carboxybenzyl)-5-(2-[5-(2-methyl-3-oxomorpholin-4-yl)pentyl]oxy 1-phenyl)pent-4-en-1-yl]benzoic acid]",1,–,–
"O=c1onc2cnc3ccccc3n12 [ODQ, 1H-1,2,4-oxadiazole-(4,3a)-quinoxalin-1-one, reference compound]",–,–,Stimulation (n-fold) of sGC with ODQ alone ([3]; 10 μM ODQ): 3.9 n-fold
